# Reference: article PMC6127852 (Journal of Enzyme Inhibition and Medicinal Chemistry, 2018)
# Legend:
# P. aeruginosa ATCC 27853 = assay: Broth microdilution MIC, P. aeruginosa ATCC 27853; type: cell-based; details: Pseudomonas aeruginosa, ATCC27853; Table S2
# Procedure: (§1) The compounds were evaluated for their in vitro anti-bacterial activity against Gram-positive bacteria: S. aureus (ATCC 25923), MRSA, methicillin-sensitive S. aureus (MSSA), E. faecalis, vancomycin-resistant E. faecium (VREF), and Gram-negative bacteria: E. coli (ATCC 25925), P. aeruginosa (ATCC 27853), A. baumannii (ATCC 19606) and ESBL-producing K. pneumoniae (ATCC 27736). Standard broth microdilution method as recommended in guidelines of Clinical and Laboratory Standards Institute[61] ^, [65] ^, [66] was applied and the minimum inhibitory concentration (MIC) of compounds was tested. In short, testing was performed in U-bottomed 96-well sterile plastic microdilution trays (Falcon 3077, Becton Dickinson Labware, Franklin Lakes, NJ) in cation (Ca^2+ and Mg^2+) adjusted Mueller–Hinton broth medium (Becton Dickinson and Co., Cockeysville, MD). All testings were performed in triplicate.
# (§2) The in vitro anti-bacterial activity of 5-amidinobenzimidazoles 7a–7e, 8a–8e, and 9a–9e was tested against Gram-positive bacteria including S. aureus (ATCC 25923), Enterococcus faecalis (ATCC 29212), and Gram-negative bacteria including E. coli (ATCC 25925), K. pneumoniae (ATCC 700803), P. aeruginosa (ATCC 27853), and Acinetobacter baumannii (ATCC 19606).
# E. coli ATCC 25925 = assay: Broth microdilution MIC, E. coli ATCC 25925; type: cell-based; details: Escherichia coli, ATCC25925; Table S2
# Procedure: as §1, §2
# K. pneumoniae ESBL = assay: Broth microdilution MIC, ESBL K. pneumoniae clinical strain; type: cell-based; details: Klebsiella pneumoniae
# Procedure: as §1
# P. aeruginosa ESBL = assay: Broth microdilution MIC, ESBL P. aeruginosa clinical strain; type: cell-based; details: Pseudomonas aeruginosa
# E. coli ESBL = assay: Broth microdilution MIC, ESBL E. coli clinical strain; type: cell-based; details: Escherichia coli
# [1] = system: polyA-polyU (RNA, polymer) A/U; assay: UV melting at 260 nm; details: PBS, I = 0.05 M, cations not specified, pH 7, r = 0.3 [compound]/[polynucleotide]
# ctDNA = assay: Thermal melting (ΔTm) of ctDNA; type: binding, calf; details: PBS, pH 7; for ΔTm, ctDNA, r = 0.3: r = [compound]/[polynucleotide] 0.3, error ±0.5 °C
# Procedure: (§3) T m experiments were conducted with a Perkin Elmer Lambda 25 spectrophotometer in 1 cm quartz cuvettes. The absorbance of the DNA/RNA-compound complex was monitored at 260 nm as a function of temperature. The absorbance of the ligands was subtracted from every curve, and the absorbance scale was normalised. The ΔT m values were calculated by subtracting T m of the free nucleic acid from T m of the complex. Every reported ΔT m value was the average of at least two measurements. The error of ΔT m is ±0.5 °C. All data were graphed and analysed using Origin software version 9.0.
# (§4) Denaturation experiments were carried out at different amounts of the compounds (r = 0.1, 0.3, 0.5, and 0.7 eq; r = [compound]/[polynucleotide]) with ctDNA and polyA-polyU.
# S. aureus ATCC 25923 = assay: Broth microdilution MIC, S. aureus ATCC 25923; type: cell-based; details: Staphylococcus aureus, ATCC25923; Table S2
# Procedure: as §1, §2
# polyA-polyU [2] = assay: Thermal melting (ΔTm) of polyA-polyU; type: binding; details: for ΔTm, polyA-polyU, r = 0.1: PBS, pH 7; for ΔTm, polyA-polyU, r = 0.3 / ΔTm, polyA-polyU, r = 0.5: first melting midpoint; for ΔTm, polyA-polyU, r = 0.3, second melting midpoint / ΔTm, polyA-polyU, r = 0.5, second melting midpoint: footnote c: biphasic melting curve
# Procedure: as §3, §4
# calf thymus ctDNA = assay: UV–Vis titration with ctDNA (Scatchard); type: binding; details: PBS, pH 7; for Hypochromic effect H/%, ctDNA: UV–Vis titration, calculated by Scatchard equation; for log Ks, ctDNA: binding constant, Scatchard
# Procedure: (§5) Polynucleotides were purchased as follows: polyG–polyC, polyA–polyU (Sigma-Aldrich, St. Louis, MO), calf thymus ctDNA (Aldrich). Polynucleotides were dissolved in PBS buffer, I = 0.05 mol dm^−3, pH 7.0. The calf thymus ctDNA was additionally sonicated and filtered through a […] filter. The polynucleotide concentration was spectroscopically determined as the concentration of nucleobases.
# (§6) All UV–Vis absorbance measurements were conducted on a Perkin Elmer Lambda 25 spectrophotometer (Perkin Elmer, Waltham, MA). A quartz cell with a 1 cm path length was used for all absorbance studies. Compound stock solutions were 1 mM. The DNA/RNA at increasing ratios was then titrated into the compound buffer solution (1.48 × 10^−5 mol dm^−3) and the corresponding absorption spectra were recorded under the same conditions. All data were graphed and analysed using Origin software version 9.0 (OriginLab Corporation, Northampton, MA). The stability constants (Ks) and [bound compound]/[polynucleotide phosphate] ratios (n) were calculated according to the Scatchard Equation[63] ^, [64]. Values for Ks and n given in Table 1 all have satisfying correlation coefficients (0.99).
# (§7) The binding constants logKs and the density of the binding sites n were calculated using Scatchard plot analysis. In addition, the binding constants Ks for compounds 8b and 8e were calculated only for titration data taken at the r ≥ 0.1, because below that ratio changes in absorption maxima were too small for accurate calculation (ΔA ≤ 0.04) (Table 1). The binding constants Ks and ratios n obtained by processing UV–Vis titration data using the Scatchard equation are summarised in Table 1.
# K. pneumonia ATCC 700803 = assay: Broth microdilution MIC, K. pneumoniae ATCC 700803; type: cell-based; details: Klebsiella pneumoniae, ATCC700803; Table S2
# Procedure: as §1, §2
# E. faecalis ATCC 29212 = assay: Broth microdilution MIC, E. faecalis ATCC 29212; type: cell-based; details: Enterococcus faecalis, ATCC29212; Table S2
# Procedure: as §1, §2
# E. faecium VRE = assay: Broth microdilution MIC, VRE clinical strain; type: cell-based; details: Enterococcus faecium
# Procedure: as §1
# S. aureus MRSA = assay: Broth microdilution MIC, MRSA clinical strain; type: cell-based; details: Staphylococcus aureus, antibiotic-resistant clinical strain
# Procedure: as §1
# A. baumannii ATCC 19606 = assay: Broth microdilution MIC, A. baumannii ATCC 19606; type: cell-based; details: Acinetobacter baumannii, ATCC19606; Table S2
# Procedure: as §1, §2
# S. aureus MSSA = assay: Broth microdilution MIC, MSSA clinical strain; type: cell-based; details: Staphylococcus aureus
# Procedure: as §1
# polyC-polyG = assay: UV–Vis titration with polyC-polyG (Scatchard); type: binding; details: PBS, pH 7; for log Ks, polyC-polyG: binding constant, Scatchard; for Hypochromic effect H/%, polyC-polyG: UV–Vis titration, calculated by Scatchard equation
# Procedure: as §5, §6, §7
# polyA-polyU [3] = assay: UV–Vis titration with polyA-polyU (Scatchard); type: binding; details: PBS, pH 7; for Hypochromic effect H/%, polyA-polyU: UV–Vis titration, calculated by Scatchard equation; for log Ks, polyA-polyU: binding constant, Scatchard
# Procedure: as §5, §6, §7
# [4] = system: polyG-polyC (polyC-polyG) (RNA, polymer) G/C; assay: UV-Vis titration, Scatchard; details: PBS, I = 0.05 M (Table 1 says I = 0.015 M), cations not specified, I = 0.015 M (Methods: 0.05 M)
# [5] = system: bloodstream form T. brucei (strain 221); assay: Anti-trypanosomal screening, resazurin; type: cell-based; details: Trypanosoma brucei, mean of triplicate ± SEM
# Procedure: Bloodstream form T. brucei (strain 221) were cultured in modified Iscove’s medium, as outlined[67] and trypanocidal assays were performed using 96-well microtitre plates. […] Resazurin was added after 48 h, the plates incubated for a further 16 h, and then read in a Spectramax plate reader (Molecular Devices Corporation, San Jose, CA). The data were analysed using GraphPad Prism (GraphPad, La Jolla, CA). Each drug concentration was tested in triplicate.
# [6] = system: polyA-polyU (RNA, polymer) A/U; assay: UV-Vis titration, Scatchard; details: PBS, I = 0.05 M (Table 1 says I = 0.015 M), cations not specified, I = 0.015 M (Methods: 0.05 M), pH 7, per base
Compound,MIC (P. aeruginosa ATCC 27853) [µg/mL],MIC (E. coli ATCC 25925) [µg/mL],MIC (K. pneumoniae ESBL) [µg/mL],MIC (P. aeruginosa ESBL) [µg/mL],MIC (E. coli ESBL) [µg/mL],"ΔTm, ctDNA, r = 0.5 (ctDNA) [°C]","ΔTm, ctDNA, r = 0.7 (ctDNA) [°C]","ΔTm, ctDNA, r = 0.3 (ctDNA) [°C]",MIC (S. aureus ATCC 25923) [µg/mL],"ΔTm, polyA-polyU, r = 0.1 (polyA-polyU [2]) [°C]","ΔTm, polyA-polyU, r = 0.3 (polyA-polyU [2]) [°C]","Hypochromic effect H/%, ctDNA (calf thymus ctDNA) [%]","log Ks, ctDNA (calf thymus ctDNA)",MIC (K. pneumonia ATCC 700803) [µg/mL],MIC (E. faecalis ATCC 29212) [µg/mL],MIC (E. faecium VRE) [µg/mL],MIC (S. aureus MRSA) [µg/mL],MIC (A. baumannii ATCC 19606) [µg/mL],MIC (S. aureus MSSA) [µg/mL],"log Ks, polyC-polyG (polyC-polyG)",also measured
"CC(C)(O/N=C(\C(=O)N[C@@H]1C(=O)N2C(C(=O)[O-])=C(C[n+]3ccccc3)CS[C@H]12)c1csc(N)n1)C(=O)O [Ceftazidime, ceftazidime, reference compound]",4,0.5,> 128,32,8,–,–,–,–,–,–,–,–,–,–,–,–,–,–,–,–
N=C(N)c1ccc2[nH]c(-c3ccc(OCc4cn(Cc5ccccc5)nn4)cc3)nc2c1 [Compound 7d],32,32,16,32,16,3.86,3.62,3.12,32,2.06,1.14,40.4,5.78,64,64,32,16,> 256,32,6.56,"ΔTm ([1]; error ±0.5, per base): 1.14 °C; Hypochromic effect H/%, polyA-polyU (polyA-polyU [3]): 32.5%; log Ks, polyA-polyU (polyA-polyU [3]): 5.94; log Ks ([4]; pH 7, per base): 6.56; IC50 [5]: 12.9 ± 0.2 µM; IC90 [5]: 18.2 ± 1 µM; log Ks [6]: 5.94"
"Cl.Cl.c1ccc(SCn2cc(COc3ccc(-c4nc5cc(C6=NCCN6)ccc5[nH]4)cc3)nn2)cc1 [Compound 9e, 5–(4,5-Dihydro-1H-imidazol-2-yl)-2–(4-((1-(phenylthiomethyl)-1H-1,2,3-triazol-4-yl)methoxy)phenyl)-1H-benz[d]imidazole dihydrochloride]",128,64,–,64,64,3.47,3.60,2.87,32,1.11,0.47,41.1,6.21,> 256,128,32,64,> 256,64,4.29,"melting point: 162 to 164 °C; ΔTm, polyA-polyU, r = 0.3, second melting midpoint (polyA-polyU [2]): 12.46^c °C; ΔTm, polyA-polyU, r = 0.5 (polyA-polyU [2]): 0.47 °C; ΔTm, polyA-polyU, r = 0.5, second melting midpoint (polyA-polyU [2]): 13.89^c °C; Hypochromic effect H/%, polyC-polyG (polyC-polyG): 5.21%; Hypochromic effect H/%, polyA-polyU (polyA-polyU [3]): 31.6%; log Ks, polyA-polyU (polyA-polyU [3]): 5.36; log Ks ([4]; pH 7, n fixed, per base): 4.29; IC50 [5]: 9.7 ± 0.2 µM; IC90 [5]: 14 ± 0.3 µM; log Ks [6]: 5.36"
"Cl.Cl.N=C(N)c1ccc2[nH]c(-c3ccc(OCc4cn(CSc5ccccc5)nn4)cc3)nc2c1 [Compound 7e, 2–(4-((1-((Phenylthio)methyl)-1H-1,2,3-triazol-4-yl)methoxy)phenyl)-1H-benz[d]imidazole-5-carboximidamide dihydrochloride]",64,32,16,32,32,2.62,2.66,2.19,32,0.39,1.11,38.2,5.33,128,128,64,32,> 256,128,5.89,"melting point: 173 to 176 °C; ΔTm ([1]; error ±0.5, biphasic, second midpoint 12.58, per base): 1.11 °C; ΔTm, polyA-polyU, r = 0.3, second melting midpoint (polyA-polyU [2]): 12.58^c °C; ΔTm, polyA-polyU, r = 0.5 (polyA-polyU [2]): 1.11 °C; ΔTm, polyA-polyU, r = 0.5, second melting midpoint (polyA-polyU [2]): 15.04^c °C; Hypochromic effect H/%, polyC-polyG (polyC-polyG): 5.79%; Hypochromic effect H/%, polyA-polyU (polyA-polyU [3]): 31.7%; log Ks, polyA-polyU (polyA-polyU [3]): 6.20; log Ks ([4]; pH 7, per base): 5.89; IC50 [5]: 10.2 ± 1.3 µM; IC90 [5]: 15.9 ± 0.4 µM; log Ks [6]: 6.20"
N=C(N)c1ccc2[nH]c(-c3ccc(OCc4cn(-c5ccccc5)nn4)cc3)nc2c1 [Compound 7a],128,32,8,128,4,4.84,4.69,2.46,32,1.74,1.74,7.8,6.76,128,64,32,16,> 256,32,6.44,"ΔTm ([1]; error ±0.5, per base): 1.74 °C; ΔTm, polyA-polyU, r = 0.5 (polyA-polyU [2]): 2.53 °C; Hypochromic effect H/%, polyA-polyU (polyA-polyU [3]): 19.3%; log Ks, polyA-polyU (polyA-polyU [3]): 5.24; log Ks ([4]; pH 7, n fixed, per base): 6.44; IC50 [5]: 8.6 ± 0.5 µM; IC90 [5]: 16.2 ± 0.9 µM; log Ks [6]: 5.24"
